Measurements as given in patent US20140005163A1 (NOVARTIS AG, priority 2010, published 2014).

Assays:
[1] = target: T1, mTOR (Homo sapiens, UniProt P42345); test: Biochemical assay for m-TOR by TR-FRET; conditions: 8 μM ATP, 400 nM GFP-4EBP1, 0.5 nM mTOR
T1 construct: purchased Invitrogen Corporation (Carlsbad/CA, USA) PV4753
Protocol: Biochemical Assay for m-TOR by TR-FRET.
Assay components are purchased from Invitrogen Corporation (Carlsbad/CA, USA): GFP-4EBP1 (Cat. No. PV4759), Tb3+-α-p4EBP1 [pThr46] Antibody (Cat. No. PV4757), proprietary TR-FRET dilution buffer (Cat. No. PV3574), mTOR protein (Cat. No. PV4753).
Then 5 μL of ATP (8 μM final concentration) and GFP-4EBP1 (400 nM final concentration) with 5 μL mTOR proteins (0.5 nM final concentration) are incubated at rt. The standard reaction buffer for the TR-FRET mTOR assay contained 50 mM HEPES pH 7.5, 10 mM MnCl2, 50 mM NaCl, 1 mM EGTA, 1 mM DTT. Reactions were stopped with 10 μL of a mixture of EDTA containing the Tb3+-α-p4EBP1-[pT46] detection Ab (0.5 nM) in TR-FRET dilution buffer (proprietary to IVG). Plates are read 15 mins later in a Synergy2 reader using an integration time of 0.2 seconds and a delay of 0.1 seconds. […] A standard compound is used as a reference compound and included in all assay plates in the form of 16 dilution points in duplicate.

[2] = system: PKB Ser473 phosphorylation in Rat1-myr-HA-p110 alpha cells; test: Reverse protein array assay, PKB Ser473 phosphorylation in Rat1-myr-p110 alpha cells; format: cell-based; conditions: 0.5 h, pAkt Ser473, 30 minutes compound incubation, read-out: p-PKB IC50
Protocol: (§1) The Rat1-myr-HA-p110 alpha, beta and delta cells were trypsinized and counted with a CASY TT cell counter (Schärfe System GmbH, Reutlingen Germany). […] The plates were incubated at 37° C. and 5% CO2 under humidified condition for at least 20 h. Compound of formula I working solutions were prepared freshly as serial 8 step dilutions (vol/vol) in DMSO on the day of the experiment. […] The final DMSO concentration was kept constant at 0.2%. cell culture medium containing 0.2% DMSO was used as vehicle treatment control. Post incubation, the cells were treated with the serial compound dilution. 50 μl of the compound medium mixture was added to the wells containing cells and 150 μl DMEM medium and incubated for 30 minutes (37° C., 5% CO2). After 30 minutes of incubation, the medium mixture was quickly removed by aspiration. […] 50 μl of the described lysis buffer mix was added to each well, followed by 10 minutes of incubation on ice.
(§2) The samples were spotted onto ZeptoMARKt PWG protein microarray chips (Zeptosens, Witterswil, Switzerland) with the piezoelectric microdispense-based, non-contact Nano-Plotter 2.1 (GeSiM, Grosserkmannsdorf, Germany). Each sample was spotted at 4 different sample concentrations (d1=100%, d2=75%, d3=50%, d4=25%) by diluting the cell lysate with the corresponding volume of lysis buffer mix. After spotting the ZeptoMARK® protein microarrays, the chips are incubated for 1 hour at 37° C. […] After 20 minutes of blocking the chips are extensively rinsed with deionized water (Milli-Q quality, 18MΩ×cm) and dried in a nitrogen air flow.
(§3) After incubation, the arrays were washed twice with 200 μl CAB1 buffer. […] The fluorescence signal was assessed with exposure times of 1, 3, 5 and 10 seconds, depending on the intensity of the signal. The resulting four images taken per array are stored as 16-bit TIF files.
(§4) The fluorescence images for each array were analyzed with the ZeptoVIEW Pro 2.0 software (Zeptosens, Witterswil, Switzerland) and the relative fluorescence intensity for each signal was calculated.

[3] = system: PKB Ser473 phosphorylation in Rat1-myr-HA-p110 delta cells; test: Reverse protein array assay, PKB Ser473 phosphorylation in Rat1-myr-p110 delta cells; format: cell-based; conditions: read-out: p-PKB IC50
Protocol: as §1, §2, §3, §4

[4] = system: S6 Ribosomal Protein phosphorylation Ser235/236 in TSC1 null mouse embryo fibroblast (MEF) cells; test: Reverse protein array assay, S6 Ribosomal Protein phosphorylation Ser235/236 in TSC1 null MEF cells; format: cell-based; conditions: 1 h, pS6 ribosomal protein Ser235/236, 60 minutes incubation, read-out: p-S6 IC50
Protocol: as §1, with “TSC1−/−” for “Rat1-myr-HA-p110 alpha, beta and delta”, “(Schirfe” for “(Schärfe”, “Working” for “Compound of formula I working”, “0.02%.” for “0.2%.”, “0.02%” for “0.2%”, “60” for “30”
The spotting of the chips follows the previous described method.

[5] = system: PKB Ser473 phosphorylation in Rat1-myr-HA-p110 beta cells; test: Reverse protein array assay, PKB Ser473 phosphorylation in Rat1-myr-p110 beta cells; format: cell-based; conditions: 0.5 h, pAkt Ser473, 30 minutes incubation, read-out: p-PKB IC50
Protocol: as §1, §2, §3, §4

[6] = target: T2, PI3K alpha (Homo sapiens, UniProt P42336); test: PI3K alpha kinase assay (Kinase-Glo luminescence); format: biochemical
T2 construct: p85(iSH2) fusion partner (see partner chain) (N); His tag (C); made in house; host or cells: baculovirus; Tn5 (Trichoplusia ni) or TiniPro insect cells
T2 sequence (P42336 with tags, fused parts or gaps limits assumed): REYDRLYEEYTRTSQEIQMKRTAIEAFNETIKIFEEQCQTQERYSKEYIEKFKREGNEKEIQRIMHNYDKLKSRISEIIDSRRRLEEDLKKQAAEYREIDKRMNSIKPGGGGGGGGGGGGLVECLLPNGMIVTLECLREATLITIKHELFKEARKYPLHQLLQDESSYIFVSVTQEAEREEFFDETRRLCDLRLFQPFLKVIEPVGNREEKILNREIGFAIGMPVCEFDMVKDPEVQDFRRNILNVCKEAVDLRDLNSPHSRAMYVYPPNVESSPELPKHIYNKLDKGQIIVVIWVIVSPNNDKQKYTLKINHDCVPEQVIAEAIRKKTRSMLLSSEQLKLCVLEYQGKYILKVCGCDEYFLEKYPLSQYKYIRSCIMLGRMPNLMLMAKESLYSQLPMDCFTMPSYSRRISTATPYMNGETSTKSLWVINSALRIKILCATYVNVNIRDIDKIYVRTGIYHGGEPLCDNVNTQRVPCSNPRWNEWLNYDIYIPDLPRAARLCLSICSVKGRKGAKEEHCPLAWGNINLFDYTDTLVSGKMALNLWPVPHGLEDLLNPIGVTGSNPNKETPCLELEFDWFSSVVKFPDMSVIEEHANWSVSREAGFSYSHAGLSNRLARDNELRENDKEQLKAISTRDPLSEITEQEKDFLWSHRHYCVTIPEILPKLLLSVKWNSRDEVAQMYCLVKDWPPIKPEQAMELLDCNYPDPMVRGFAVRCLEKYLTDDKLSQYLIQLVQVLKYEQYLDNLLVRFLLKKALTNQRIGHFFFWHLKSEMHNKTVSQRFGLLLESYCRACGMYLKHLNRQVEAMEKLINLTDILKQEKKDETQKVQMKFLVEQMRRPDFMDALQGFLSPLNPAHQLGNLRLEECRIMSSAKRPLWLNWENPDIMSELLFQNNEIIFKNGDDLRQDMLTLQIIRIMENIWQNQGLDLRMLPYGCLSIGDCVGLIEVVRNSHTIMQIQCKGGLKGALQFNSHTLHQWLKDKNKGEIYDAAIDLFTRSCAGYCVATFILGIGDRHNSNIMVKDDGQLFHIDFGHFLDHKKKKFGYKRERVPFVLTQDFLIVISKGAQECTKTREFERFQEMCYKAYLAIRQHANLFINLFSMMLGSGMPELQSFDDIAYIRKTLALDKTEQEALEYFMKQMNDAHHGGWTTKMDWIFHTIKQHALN
Protocol: (§5) In a more preferred assay, the kinase reaction is performed in a final volume of 10 μL per well of a low volume non binding CORNING, 384 well black plate (Cat. No. #3676). The final concentrations of ATP and phosphatidyl inositol (PI) in the assay are 1 μM and 10 μg/mL respectively. The reaction is started by the addition of ATP.
(§6) The components of the assay are added per well as follows:
(§7) […] in 90% DMSO per well, in columns 1-20, 8 concentrations (1/3 and 1/3.33 serial dilution step) in single. • Low control: […] of 90% DMSO in half the wells of columns 23-24 (0.45% in final). • High control: […] of reference compound (e.g. compound of Example 7 in WO 2006/122806) in the other half of columns 23-24 (2.5 μM in final). • Standard: […] of reference compound as just mentioned diluted as the test compounds in columns 21-22 • 20 mL ‘buffer’ are prepared per assay: • 200 μL of 1M TRIS HCl pH7.5 (10 mM in final) • 60 μL of 1M MgCl2 (3 mM in final) • 500 μL of 2M NaCl (50 mM in final) • 100 μL of 10% CHAPS (0.05% in final) • 200 μL of 100 mM DTT (1 mM in final) • 18.94 mL of nanopure water • 10 mL ‘PI’ are prepared per assay: • 200 μL of 1 mg/ml L-alpha-Phosphatidylinositol (Liver Bovine, Avanti Polar Lipids Cat. No. 840042C MW=909.12) prepared in 3% OctylGlucoside (10 μg/ml in final) • 9.8 mL of ‘buffer’ • 10 mL ‘ATP’ are prepared per assay: • 6.7 μL of 3 mM stock of ATP giving a final concentration of 1 μM per well • 10 mL of ‘buffer’ • 2.5 mL of each PI3K construct are prepared per assay in ‘PI’ with the following final concentration: • 10 nM PI3K alfa EMV B1075 • 25 nM beta EMV BV949 • 10 nM delta EMV BV1060 • 150 nM gamma EMV BV950 • 5 μL of ‘PI/PI3K’ are added per well. • 5 μl ‘ATP’ are added per well to start the reaction. • The plates are then incubated at room temperature for 60 minutes (alfa, beta, delta) or 120 minutes (gamma). • The reaction is terminated by the addition of 10 μL Kinase-Glo (Promega Cat. No. #6714). • The assay plates are read after 10 minutes in Synergy 2 reader (BioTek, Vermont USA) with an integration time of 100 milliseconds and sensitivity set to 191. • Output: The High control is around 60'000 counts and the Low control is 30'000 or lower • This luminescence assay gives a useful Z′ ratio between 0.4 and 0.7
Two different constructs, BV 1052 and BV 1075, are used to generate the PI3 Kinase a proteins for compound screening.
(§8) IC50 is determined by a four parameter curve fitting routine that comes along with “excel fit”. […] Alternatively, IC50 values are calculated using idbsXLfit model 204, which is a 4 parameter logistic model.

[7] = target: T3, PI3K delta (Homo sapiens, UniProt O00329); test: PI3K delta kinase assay (Kinase-Glo luminescence); format: biochemical
T3 construct: for the full-length p110-d subunit are generated and fused by overlapping PCR; p85(iSH2) fusion partner (see partner chain) (N); His tag (C); made in house; host or cells: baculovirus; Tn5 (Trichoplusia ni) or TiniPro insect cells
T3 sequence (O00329 with tags, fused parts or gaps limits assumed): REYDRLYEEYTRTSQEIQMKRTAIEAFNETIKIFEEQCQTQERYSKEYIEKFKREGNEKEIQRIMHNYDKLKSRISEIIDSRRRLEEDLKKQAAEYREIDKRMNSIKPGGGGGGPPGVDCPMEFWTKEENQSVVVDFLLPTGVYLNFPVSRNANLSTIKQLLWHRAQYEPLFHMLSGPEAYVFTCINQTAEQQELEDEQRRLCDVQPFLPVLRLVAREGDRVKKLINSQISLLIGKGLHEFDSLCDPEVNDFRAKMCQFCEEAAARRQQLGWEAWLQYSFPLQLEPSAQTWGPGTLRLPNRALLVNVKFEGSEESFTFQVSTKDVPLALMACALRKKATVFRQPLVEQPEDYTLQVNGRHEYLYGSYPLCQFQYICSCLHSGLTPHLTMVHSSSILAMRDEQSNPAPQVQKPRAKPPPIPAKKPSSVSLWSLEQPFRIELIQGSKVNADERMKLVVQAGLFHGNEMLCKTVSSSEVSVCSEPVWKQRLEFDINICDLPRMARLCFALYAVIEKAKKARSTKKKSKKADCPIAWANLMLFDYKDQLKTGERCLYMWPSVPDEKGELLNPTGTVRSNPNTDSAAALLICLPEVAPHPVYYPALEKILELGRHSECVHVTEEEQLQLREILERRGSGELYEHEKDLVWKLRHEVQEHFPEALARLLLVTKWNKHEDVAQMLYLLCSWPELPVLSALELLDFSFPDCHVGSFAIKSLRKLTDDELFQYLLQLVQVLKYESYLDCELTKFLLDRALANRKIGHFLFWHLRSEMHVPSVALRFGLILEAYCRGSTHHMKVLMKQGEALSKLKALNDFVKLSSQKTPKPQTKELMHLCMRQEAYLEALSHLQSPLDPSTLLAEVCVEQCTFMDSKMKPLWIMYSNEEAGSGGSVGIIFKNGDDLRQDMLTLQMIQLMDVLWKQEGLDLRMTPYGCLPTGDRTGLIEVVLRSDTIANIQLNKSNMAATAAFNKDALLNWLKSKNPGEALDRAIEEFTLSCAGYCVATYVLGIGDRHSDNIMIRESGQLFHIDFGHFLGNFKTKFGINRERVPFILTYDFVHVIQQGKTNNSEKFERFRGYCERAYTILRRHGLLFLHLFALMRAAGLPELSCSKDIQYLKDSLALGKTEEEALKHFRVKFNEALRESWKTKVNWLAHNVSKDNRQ
Protocol: as §5, §6, §7
PI3Kγ BV-1060 p85(iSH2)-Gly Linker-p110d(Full-Length)-C-Term his Tag
as §8

T1 sequence (P42345 1360-2549 limits assumed): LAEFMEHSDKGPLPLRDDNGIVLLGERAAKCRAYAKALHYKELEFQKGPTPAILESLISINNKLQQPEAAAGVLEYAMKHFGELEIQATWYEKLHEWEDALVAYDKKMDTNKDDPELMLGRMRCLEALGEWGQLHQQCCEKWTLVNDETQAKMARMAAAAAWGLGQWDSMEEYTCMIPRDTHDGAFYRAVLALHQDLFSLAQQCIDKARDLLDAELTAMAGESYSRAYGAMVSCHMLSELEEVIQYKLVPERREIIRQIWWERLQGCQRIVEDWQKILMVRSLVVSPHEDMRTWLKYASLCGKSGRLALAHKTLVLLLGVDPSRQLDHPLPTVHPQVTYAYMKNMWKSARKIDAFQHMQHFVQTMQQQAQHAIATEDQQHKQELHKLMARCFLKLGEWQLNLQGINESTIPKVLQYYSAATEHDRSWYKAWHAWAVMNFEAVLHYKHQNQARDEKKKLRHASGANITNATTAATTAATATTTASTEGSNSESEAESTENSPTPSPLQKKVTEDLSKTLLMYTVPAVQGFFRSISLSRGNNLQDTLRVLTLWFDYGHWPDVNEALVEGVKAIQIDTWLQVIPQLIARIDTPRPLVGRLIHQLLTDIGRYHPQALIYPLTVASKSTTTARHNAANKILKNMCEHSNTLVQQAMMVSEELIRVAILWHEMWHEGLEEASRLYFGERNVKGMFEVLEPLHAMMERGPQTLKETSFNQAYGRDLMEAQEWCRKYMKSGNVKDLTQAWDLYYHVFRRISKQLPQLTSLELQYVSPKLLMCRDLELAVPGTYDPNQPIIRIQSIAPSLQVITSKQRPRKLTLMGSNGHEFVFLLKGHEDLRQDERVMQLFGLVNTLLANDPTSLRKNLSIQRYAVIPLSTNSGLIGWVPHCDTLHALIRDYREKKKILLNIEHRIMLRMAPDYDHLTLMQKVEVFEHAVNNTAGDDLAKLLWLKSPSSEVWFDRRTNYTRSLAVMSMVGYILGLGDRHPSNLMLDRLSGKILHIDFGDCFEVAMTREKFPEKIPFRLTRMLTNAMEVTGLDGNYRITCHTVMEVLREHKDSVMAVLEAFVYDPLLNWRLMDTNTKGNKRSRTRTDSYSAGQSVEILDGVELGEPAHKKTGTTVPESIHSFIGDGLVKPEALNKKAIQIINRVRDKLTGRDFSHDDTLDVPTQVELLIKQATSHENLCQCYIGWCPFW

Row | IC50 [1] | IC50 [2] | IC50 [3] | IC50 [5] | IC50 [6] | IC50 [7] | Structure (SMILES) | IC50 [4]
1 | 100 nM |  |  |  | 543 nM |  | Cc1nn(CC(=O)N2CCN(C)CC2)cc1-n1c(=O)n(C)c2cnc3ccc(-c4ccccc4)cc3c21 [Example 134, 3-Methyl-1-{3-methyl-1-[2-(4-methyl-piperazin-1-yl)-2-oxo-ethyl]-1H-pyrazol-4-yl}-8-phenyl-1,3-dihydro-imidazo[4,5-c]quinolin-2-one] | 
2 |  | 8 nM | 9 nM | 12 nM |  |  | COc1cc(-c2ccc3ncc4c(c3c2)n(-c2cn(C)nc2C)c(=O)n4C)cnc1OC [Example 204, 8-(5,6-Dimethoxy-pyridin-3-yl)-1-(1,3-dimethyl-1H-pyrazol-4-yl)-3-methyl-1,3-dihydro-imidazo[4,5-c]quinolin-2-one] | < 0.5 nM
3 | 123 nM | 58 nM |  | 119 nM | 220 nM | 211 nM | CO[C@H]1CCN(c2ccc(-c3ccc4ncc5c(c4c3)n(-c3cn(C)nc3C)c(=O)n5C)cn2)C1 [Example 213.2, 1-(1,3-Dimethyl-1H-pyrazol-4-yl)-8-[6-((S)-3-methoxy-pyrrolidin-1-yl)-pyridin-3-yl]-3-methyl-1,3-dihydro-imidazo[4,5-c]quinolin-2-one] | 
4 |  | 285 nM |  | 608 nM |  |  | Cc1nn(C)cc1-n1c(=O)n(C)c2cnc3ccc(-c4ccc(NC5CCOCC5)nc4)cc3c21 [Example 214, 1-(1,3-Dimethyl-1H-pyrazol-4-yl)-3-methyl-8-[6-(tetrahydro-pyran-4-ylamino)-pyridin-3-yl]-1,3-dihydro-imidazo[4,5-c]quinolin-2-one] | 46 nM
5 | 99 nM | 828 nM |  |  | 971 nM |  | Cc1nn(CC(=O)N2CCN(C)CC2)cc1-n1c(=O)n(C)c2cnc3ccc(-c4cnc(N5CCCC5)nc4)cc3c21 [Example 247.5, 3-Methyl-1-{3-methyl-1-[2-(4-methyl-piperazin-1-yl)-2-oxo-ethyl]-1H-pyrazol-4-yl}-8-(2-pyrrolidin-1-yl-pyrimidin-5-yl)-1,3-dihydro-imidazo[4,5-c]quinolin-2-one] | 201 nM

Second part, the molecule before the results:

Row | Structure (SMILES) | IC50 [1] | IC50 [2] | IC50 [3] | IC50 [5] | IC50 [6] | IC50 [7] | IC50 [4]
6 | COc1ccc(-c2ccc3ncc4c(c3c2)n(-c2cn(C)nc2Cl)c(=O)n4C)cc1OC [1.10—] | 14 nM |  |  |  |  |  | 
7 | COc1ccc(-c2ccc3ncc4c(c3c2)n(-c2cnn(C)c2C)c(=O)n4C)cc1OC [Example 1.1, 8-(3,4-Dimethoxy-phenyl)-1-(1,5-dimethyl-1H-pyrazol-4-yl)-3-methyl-1,3-dihydro-imidazo[4,5-c]quinolin-2-one] |  | 22 nM | 81 nM | 66 nM |  |  | 4 nM
8 | CCn1nccc1-n1c(=O)n(C)c2cnc3ccc(-c4ccc(N(C)C)nc4)cc3c21 [Example 4.8, 8-(6-Dimethylamino-pyridin-3-yl)-1-(2-ethyl-2H-pyrazol-3-yl)-3-methyl-1,3-dihydro-imidazo[4,5-c]quinolin-2-one] | 251 nM | 158 nM | 278 nM | 154 nM |  |  | 
9 | Cc1nn(C)cc1-n1c(=O)n(C)c2cnc3ccc(-c4ccc(-n5ccnc5C)nc4)cc3c21 [Example 78, 1-(1,3-Dimethyl-1H-pyrazol-4-yl)-3-methyl-8-[6-(2-methyl-imidazol-1-yl)-pyridin-3-yl]-1,3-dihydro-imidazo[4,5-c]quinolin-2-one] |  | 264 nM | 959 nM | 386 nM |  |  | 
10 | CCOc1cc(-c2ccc3ncc4c(c3c2)n(-c2cn(C)nc2C)c(=O)n4C)cnc1OC [Example 94, 1-(1,3-Dimethyl-1H-pyrazol-4-yl)-8-(5-ethoxy-6-methoxy-pyridin-3-yl)-3-methyl-1,3-dihydro-imidazo[4,5-c]quinolin-2-one] |  | < 5 nM | 9 nM | 11 nM |  |  | 
